Reference: PubChem BioAssay (NCI)
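96-well plates; 48 h exposure; 5 concentrations. Endpoints by linear interpolation between flanking doses. Not reached: highest tested concentration assigned. GI50: concentration for 50% inhibition of growth. The concentration for full growth arrest is given as TGI.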

Columns and labels:
Test in all cases: NCI tumour cell line growth inhibition, 48 h
[1] = system: LOX IMVI melanoma
[2] = system: KM12 colon
[3] = system: HS 578T breast
[4] = system: MOLT-4 leukemia
[5] = system: RXF 393 renal
[6] = system: IGROV1 ovarian
[7] = system: K-562 leukemia
[8] = system: SK-OV-3 ovarian
[9] = system: OVCAR-8 ovarian
[10] = system: 786-0 renal
[11] = system: SK-MEL-2 melanoma
[12] = system: SR leukemia
[13] = system: A498 renal
[14] = system: MDA-MB-435
[15] = system: SF-268 CNS
[16] = system: COLO 205 colon
[17] = system: HOP-92 NSCLC
[18] = system: EKVX NSCLC
[19] = system: UACC-62 melanoma
[20] = system: SNB-19 CNS
[21] = system: SK-MEL-28 melanoma
[22] = system: OVCAR-5 ovarian
[23] = system: HCT-15 colon
[24] = system: HCT-116 colon
[25] = system: UO-31 renal
[26] = system: NCI-H460 lung
[27] = system: PC-3 prostate
[28] = system: HT29 colon
[29] = system: SF-295 CNS
[30] = system: M14 melanoma
[31] = system: SW-620 colon
[32] = system: HOP-62 NSCLC
[33] = system: ACHN renal
[34] = system: A549 NSCLC
[35] = system: BT-549 breast
[36] = system: OVCAR-4 ovarian
[37] = system: NCI/ADR-RES ovarian
[38] = system: CAKI-1 renal
[39] = system: HCC-2998 colon
[40] = system: SNB-75 CNS
[41] = system: OVCAR-3 ovarian
[42] = system: U251 CNS
[43] = system: UACC-257 melanoma
[44] = system: MCF7 breast
[45] = system: SF-539 CNS
[46] = system: RPMI-8226 leukemia
[47] = system: T-47D breast
[48] = system: TK-10 renal
[49] = system: MDA-MB-231 breast
[50] = system: NCI-H522 lung
[51] = system: SN12C renal
[52] = system: DU-145 prostate
[53] = system: MALME-3M melanoma
[54] = system: SK-MEL-5 melanoma
[55] = system: CCRF-CEM leukemia
[56] = system: NCI-H226 lung
[57] = system: HL-60(TB) leukemia
[58] = system: NCI-H23 lung

O=c1[nH]/c(=C/c2ccc(OCc3ccccc3)cn2)c(=O)[nH]/c1=C/c1ccccc1
TGI [1]: > 100 µM | TGI [2]: > 100 µM | TGI [3]: > 100 µM | TGI [4]: > 100 µM | TGI [5]: > 100 µM | TGI [6]: > 24.6 µM | TGI [7]: > 100 µM | TGI [8]: > 100 µM | TGI [9]: > 80.9 µM | TGI [10]: > 100 µM | TGI [11]: > 100 µM | TGI [12]: 14.4 µM | TGI [13]: > 100 µM | TGI [14]: 0.567 µM | TGI [15]: > 100 µM | TGI [16]: > 25.4 µM | TGI [17]: > 100 µM | TGI [18]: > 100 µM | TGI [19]: > 100 µM | TGI [20]: > 100 µM | TGI [21]: > 100 µM | TGI [22]: > 100 µM | TGI [23]: > 46.4 µM | TGI [24]: > 100 µM | TGI [25]: > 100 µM | TGI [26]: > 100 µM | TGI [27]: > 100 µM | TGI [28]: > 100 µM | TGI [29]: > 100 µM | TGI [30]: > 100 µM | TGI [31]: > 100 µM | TGI [32]: > 100 µM | TGI [33]: > 100 µM | TGI [34]: > 100 µM | TGI [35]: > 100 µM | TGI [36]: > 100 µM | TGI [37]: 0.229 µM | TGI [38]: > 100 µM | TGI [39]: 0.521 µM | TGI [40]: 0.0706 µM | TGI [41]: > 78.6 µM | TGI [42]: > 91.6 µM | TGI [43]: > 100 µM | TGI [44]: > 100 µM | TGI [45]: > 67 µM | TGI [46]: > 100 µM | TGI [47]: > 100 µM | TGI [48]: > 100 µM | TGI [49]: > 100 µM

COc1ccc2c(c1)C(=O)/C(=C/c1cccc(OCC(=O)c3ccccc3)c1)CC2
GI50 [1]: 9.61 µM | TGI [1]: > 100 µM | GI50 [2]: 6.92 µM | TGI [2]: > 100 µM | GI50 [3]: 43.7 µM | TGI [3]: > 100 µM | GI50 [50]: 8.84 µM | TGI [50]: > 100 µM | GI50 [4]: 3.05 µM | TGI [4]: 6.82 µM | GI50 [51]: 61 µM | TGI [51]: > 100 µM | GI50 [52]: 32.6 µM | TGI [52]: > 100 µM | GI50 [5]: 0.0502 µM | TGI [5]: 8.05 µM | GI50 [6]: 4.19 µM | TGI [6]: > 100 µM | GI50 [7]: 1.98 µM | TGI [7]: 5.82 µM | GI50 [53]: 28.5 µM | TGI [53]: > 100 µM | GI50 [8]: 62.9 µM | TGI [8]: > 100 µM | GI50 [9]: 44.1 µM | TGI [9]: > 100 µM | GI50 [10]: 54.4 µM | TGI [10]: > 100 µM | GI50 [11]: 13.4 µM | TGI [11]: > 100 µM | GI50 [13]: 17.3 µM | TGI [13]: 80.8 µM | GI50 [14]: 2.09 µM | TGI [14]: 10.5 µM | GI50 [15]: 45.2 µM | TGI [15]: > 100 µM | GI50 [16]: 88.5 µM | TGI [16]: > 100 µM | TGI [17]: 0.792 µM | GI50 [18]: 13.9 µM | TGI [18]: > 100 µM | GI50 [19]: 12.8 µM | TGI [19]: > 100 µM | GI50 [20]: 39.6 µM | TGI [20]: > 100 µM | GI50 [21]: 32.8 µM | TGI [21]: > 100 µM | GI50 [22]: > 100 µM | TGI [22]: > 100 µM | GI50 [23]: 7.11 µM | TGI [23]: > 100 µM | GI50 [24]: 3.52 µM | TGI [24]: > 100 µM | GI50 [25]: 29.2 µM | TGI [25]: > 100 µM | GI50 [26]: 28.1 µM | TGI [26]: > 100 µM | GI50 [27]: 4.92 µM | TGI [27]: > 100 µM | GI50 [28]: 9.9 µM | TGI [28]: > 100 µM | GI50 [29]: 10.3 µM | TGI [29]: > 100 µM | GI50 [30]: 16.7 µM | TGI [30]: > 100 µM | GI50 [31]: 4.88 µM | TGI [31]: > 100 µM | GI50 [32]: 42.5 µM | TGI [32]: > 100 µM | GI50 [33]: 31.8 µM | TGI [33]: > 100 µM | GI50 [34]: 36.6 µM | TGI [34]: > 100 µM | GI50 [35]: 27.1 µM | TGI [35]: > 100 µM | GI50 [36]: 12.5 µM | TGI [36]: > 100 µM | GI50 [37]: 5.42 µM | TGI [37]: 93.9 µM | GI50 [38]: 13 µM | TGI [38]: > 100 µM | GI50 [39]: 25.8 µM | TGI [39]: > 100 µM | GI50 [40]: 42.4 µM | TGI [40]: > 100 µM | GI50 [41]: 18.3 µM | TGI [41]: > 100 µM | GI50 [54]: 4.14 µM | TGI [54]: 16.5 µM | GI50 [55]: 2.48 µM | TGI [55]: 7.67 µM | GI50 [42]: 16.8 µM | TGI [42]: > 100 µM | GI50 [43]: 8.56 µM | TGI [43]: > 100 µM | GI50 [44]: 4.53 µM | TGI [44]: > 100 µM | GI50 [56]: 28.6 µM | TGI [56]: > 100 µM | GI50 [45]: 64.7 µM | TGI [45]: > 100 µM | GI50 [46]: 2.31 µM | TGI [46]: 5.91 µM | GI50 [47]: 7.05 µM | TGI [47]: > 100 µM | GI50 [48]: > 100 µM | TGI [48]: > 100 µM | GI50 [57]: 2.18 µM | TGI [57]: 5.16 µM | GI50 [58]: 18.9 µM | TGI [58]: > 100 µM | GI50 [49]: 69.9 µM | TGI [49]: > 100 µM
